Consider 1 compound from ChEMBL document CHEMBL5338752, “Carbamate JNK3 Inhibitors Show Promise as Effective Treatments for Alzheimer's Disease: In Vivo Studies on Mouse Models” (J Med Chem, 2023).

Active and inactive are the calls of the source. No cut-off for these calls is given here.

One may read the AUC(0-t) as exposure summed from dosing to a finite time, without extrapolation to infinity. A lower AUC(0-t) goes with low exposure.

Data set [1] concerns Mus musculus. Nature of the data set: Anti-alzheimer activity against triple transgenic mouse alzheimer disease model assessed as escape latency time at 30 mg/kg, po measured upto 5 days by Morris water maze test (reference value: 58.62+/-1.15 sec). The class given is functional. The note with it: time <= 5 day.
In data set [2] the test system is Neuron. Put plainly: Inhibition of apoptosis in rat cortex neuron cells assessed as prevention of A-beta (1 to 42) induced cleaved caspase-3 formation at 10 to 20 uM measured after 24 hrs by Western blot analysis. It is filed as functional, cell-based. The note with it: dose 10-20 µM. For orientation: In western blotting, separated proteins are transferred to a membrane and probed.

The nature of data set [3]: AUClast in sixteen hrs fasted Sprague-Dawley rat at 3 mg/kg, po measured upto 24 hrs by LC-MS/MS analysis. It is filed as ADME, organism-based. The note with it: in vivo. Details: dose 3 mg/kg, time < 24 hrs, route po.
The subject of data set [4] is Neuron. Put plainly: Inhibition of apoptosis in rat cortex neuron cells assessed as prevention of A-beta (1 to 42) induced cleaved PARP formation at 10 to 20 uM measured after 24 hrs by Western blot analysis. It is filed as functional, cell-based. The note with it: dose 10-20 µM.
The subject of data set [5] is Mus musculus. Put plainly: Anti-alzheimer activity against triple transgenic mouse alzheimer disease model assessed as latency time at 30 mg/kg, po administered daily for 2.2 months and measured after 122 to 123 days by passive avoidance test (reference value: 31.3+/-6.9 sec). The class given is functional. The note with it: time 122-123 day.
The subject of data set [6] is Mus musculus. Put plainly: Anti-alzheimer activity against triple transgenic mouse alzheimer disease model assessed as spontaneous alteration at 60 mg/kg, po administered daily for 2.2 months and measured after 119 days by Y-maze test (reference value: 45.55+/-2.30%). The class given is functional. The note with it: time 119 day.
Data set [7] relates to Mus musculus. Put plainly: Anti-alzheimer activity against triple transgenic mouse alzheimer disease model assessed as reduction in tau phosphorylation level at T181 residue in hippocampal tissue at 30 to 60 mg/kg by Western blot analysis. The class given is functional, organism-based. The note with it: dose 30-60 mg/kg.
Data set [8] deals with Mus musculus. Nature of the data set: Anti-alzheimer activity against triple transgenic mouse alzheimer disease model assessed as path length at 30 mg/kg, po measured upto 5 days by Morris water maze test (reference value: 608.85+/-39.27 cm). The class given is functional. The note with it: time <= 5 day.
In data set [9] the test system is Neuron. Put plainly: Neuroprotective activity against rat neuron cells assessed as inhibition of Abeta(1-42)-induced cytotoxicity by measuring increase in cell viability at 20 uM incubated for 24 hrs by MTT assay relative to control. It is filed as functional.
The test system of data set [10] is Mus musculus. Nature of the data set: Anti-alzheimer activity against triple transgenic mouse alzheimer disease model assessed as time spent in target zone at 60 mg/kg, po administered daily for 2.2 months and measured after 137 days by Morris water maze test (reference value: 4.48+/-1.63 sec). The note with it: time 137 day. The class given is functional.
Data set [11] has as its system Neuron. Nature of the data set: Neuroprotective activity against rat neuron cells assessed as inhibition of Abeta(1-42)-induced cytotoxicity by measuring increase in cell viability at 20 uM incubated for 48 hrs by MTT assay relative to control. It is filed as functional.
Data set [12] has as its target Mitogen-activated protein kinase 10 (Rattus norvegicus) (UniProt P49187). Put plainly: Inhibition of A-beta (1 to 42) induced JNK3 activation in rat cortex neuron cells assessed as reduction in c-Jun phosphorylation levels at 10 to 20 uM incubated for 24 hrs in presence of A-beta (1 to 42) by Western blot analysis. It is filed as cell-based. The note with it: dose 10-20 µM.

Chain of Mitogen-activated protein kinase 10 (Rattus norvegicus) (P49187 whole entry): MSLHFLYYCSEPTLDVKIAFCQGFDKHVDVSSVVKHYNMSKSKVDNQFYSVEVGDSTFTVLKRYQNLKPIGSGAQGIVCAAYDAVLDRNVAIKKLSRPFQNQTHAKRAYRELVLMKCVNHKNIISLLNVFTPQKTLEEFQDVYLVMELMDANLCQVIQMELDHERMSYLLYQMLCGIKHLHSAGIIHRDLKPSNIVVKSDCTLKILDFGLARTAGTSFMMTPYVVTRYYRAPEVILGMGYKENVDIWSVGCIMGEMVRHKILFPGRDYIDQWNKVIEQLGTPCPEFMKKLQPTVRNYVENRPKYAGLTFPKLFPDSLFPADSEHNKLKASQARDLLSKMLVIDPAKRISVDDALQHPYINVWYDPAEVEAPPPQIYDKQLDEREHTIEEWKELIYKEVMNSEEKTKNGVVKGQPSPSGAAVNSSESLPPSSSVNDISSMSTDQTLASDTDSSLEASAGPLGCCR

Take `CNC(=O)Oc1cc(F)c2nc(-c3ccc4ccccc4c3)n(-c3ccnc(N[C@H]4CCCN(C(=O)C5CC5)C4)n3)c2c1`: the Time in the data set on Mus musculus [1] is 26.61 s; in the data set with Mus musculus [5] it was 31.6 s; in the data set with Mus musculus [10], 16.28 s. Further, the inhibition entry (in the data set with Neuron [2]; in the data set with Neuron [4]; in data set [12]) was “Active” in each case. Also, in [3], the AUC(0-t) at 24 h was determined as 0.727 µg·h/mL. Also, the Activity with Mus musculus [6] worked out at 54.62%; in the data set on Mus musculus [8] it was 402.59 cm; in the data set on Neuron [9], 47.5%; in the data set with Neuron [11], 28.4%. Besides, the outcome in the data set on Mus musculus [7] was Active.
